The test system of assay [1] is TGF-β1 expression in MDA-MB-231 cells. Particulars: 3 d, vs blank = 1.000, mean ± SD.
Assay [2] has as its system FOXD3-AS1 expression in MDA-MB-231 cells. To be noted: for FOXD3-AS1 fold change: mean ± SD.
Assay [3] relates to HOTTIP expression in MDA-MB-231 cells. To be noted: for HOTTIP fold change: mean ± SD.
Assay [4] has as its target WDR5^WT (WBM site) (Homo sapiens, UniProt P61964).
Assay [5] addresses WDR5^WT (WIN site) (Homo sapiens, UniProt P61964). Particulars: for inhibition at the WIN site: competitive FP, tracer 1F.
The mark [6] stands for this setting: 1 µM, 3 d, exp 8 (individual bioreplicate), vs blank = 1.000.
The mark [7] stands for this setting: 1 µM, 3 d, exp 9 (individual bioreplicate), vs blank = 1.000.
Setting [8] is: 5 µM, 3 d, exp 7 (individual bioreplicate), vs blank = 1.000.
Setting [9] is: 5 µM, 3 d, exp 8 (individual bioreplicate), vs blank = 1.000.
The mark [10] stands for this setting: 5 µM, 3 d, exp 9 (individual bioreplicate), vs blank = 1.000.
Setting [11] is: 10 µM, 1 d, Exp. 1 (individual bioreplicate), vs blank 0.1% DMSO = 1.000.
The mark [12] stands for this setting: 10 µM, 1 d, Exp. 2 (individual bioreplicate), vs blank 0.1% DMSO = 1.000.
The mark [13] stands for this setting: 10 µM, 1 d, Exp. 3 (individual bioreplicate), vs blank 0.1% DMSO = 1.000.
[14] abbreviates: 10 µM, 1 d, Exp. 4 (individual bioreplicate), vs blank 0.1% DMSO = 1.000.
Setting [15] is: 10 µM, 1 d, Exp. 5 (individual bioreplicate), vs blank 0.1% DMSO = 1.000.
Setting [16] is: 10 µM, 1 d, Exp. 6 (individual bioreplicate), vs blank 0.1% DMSO = 1.000.
[17] abbreviates: 10 µM, 3 d, Exp. 7 (individual bioreplicate), vs blank 0.1% DMSO = 1.000.
Setting [18] is: 10 µM, 3 d, Exp. 8 (individual bioreplicate), vs blank 0.1% DMSO = 1.000.
Setting [19] is: 10 µM, 3 d, Exp. 9 (individual bioreplicate), vs blank 0.1% DMSO = 1.000.
Where [20] appears, read: 10 µM, 3 d, Exp. 10 (individual bioreplicate), vs blank 0.1% DMSO = 1.000.
Setting [21] is: 10 µM, 3 d, Exp. 11 (individual bioreplicate), vs blank 0.1% DMSO = 1.000.
Setting [22] is: 10 µM, 3 d, Exp. 12 (individual bioreplicate), vs blank 0.1% DMSO = 1.000.
The mark [23] stands for this setting: MDA-MB-231, three days, 1/5/10 μM tested.

Where two headings read alike, the source gives them in different places. Bridge positions count the residues as written; N and C are the ends. Square brackets hold non-standard residues; d marks the D form. Peptide text beside a SMILES is read from it. Dab = NCC[C@H](N)C(=O)O

`CNC(=O)c1cc(C2(C#N)CCC2)cc(NS(=O)(=O)c2cc(Br)cc(Cl)c2O)c1O` [7k, 3-((5-Bromo-3-chloro-2-hydroxyphenyl)sulfonamido)-5-(1cyanocyclobutyl)-2-hydroxy-N-methylbenzamide]: the TGF-β1 fold change in assay [1] (1 µM, exp 7 (individual bioreplicate)) was 0.972 ± 0.048; in assay [1] (1 µM, exp 8 (individual bioreplicate)) it was 1.020 ± 0.062; in assay [1] (1 µM, exp 9 (individual bioreplicate)) it was 1.060 ± 0.127; in assay [1] (5 µM, exp 7 (individual bioreplicate)) it was 0.916 ± 0.056; in assay [1] (5 µM, exp 8 (individual bioreplicate)), 1.009 ± 0.079; in assay [1] (5 µM, exp 9 (individual bioreplicate)), 1.003 ± 0.120. For the same compound, the TGF-β1 fold change is 0.972 ± 0.055 in assay [1] (10 µM, exp 7 (individual bioreplicate)); 0.987 ± 0.059 in assay [1] (10 µM, exp 8 (individual bioreplicate)); 0.942 ± 0.101 in assay [1] (10 µM, exp 9 (individual bioreplicate)). The FOXD3-AS1 fold change in assay [2] (setting [6]) stood at 0.984 ± 0.128; in assay [2] (setting [7]), 0.971 ± 0.104; in assay [2] (setting [8]), 0.753 ± 0.078; in assay [2] (setting [9]) it was 1.178 ± 0.131; in assay [2] (setting [10]), 1.020 ± 0.085; in assay [2] (setting [11]), 0.913 ± 0.098. For the same compound, the FOXD3-AS1 fold change in assay [2] (setting [12]) amounted to 1.000 ± 0.050; in assay [2] (setting [13]) it was 0.842 ± 0.122; in assay [2] (setting [14]) it was 0.826 ± 0.055; in assay [2] (setting [15]), 1.053 ± 0.047; in assay [2] (setting [16]) it was 0.901 ± 0.056; in assay [2] (setting [17]), 0.756 ± 0.076. Besides, the FOXD3-AS1 fold change was 1.075 ± 0.124 in assay [2] (setting [18]); 0.847 ± 0.077 in assay [2] (setting [19]); 0.798 ± 0.040 in assay [2] (setting [20]); 0.944 ± 0.033 in assay [2] (setting [21]); 0.650 ± 0.065 in assay [2] (setting [22]). In addition, the HOTTIP fold change in assay [3] (1 µM, 3 d, exp 7 (individual bioreplicate), vs blank = 1.000) is listed as 0.923 ± 0.164; in assay [3] (setting [6]), 0.821 ± 0.069; in assay [3] (setting [7]), 1.189 ± 0.152; in assay [3] (setting [8]), 0.643 ± 0.184; in assay [3] (setting [9]), 0.877 ± 0.062; in assay [3] (setting [10]) it was 0.915 ± 0.153. Moreover, the HOTTIP fold change in assay [3] (setting [11]) was found to be 0.963 ± 0.284; in assay [3] (setting [12]) it was 1.521 ± 0.182; in assay [3] (setting [13]), 1.129 ± 0.176; in assay [3] (setting [14]), 0.970 ± 0.197; in assay [3] (setting [15]), 0.988 ± 0.141; in assay [3] (setting [16]), 0.618 ± 0.071. In addition, the HOTTIP fold change in assay [3] (setting [17]) is 0.464 ± 0.082; in assay [3] (setting [18]) it was 0.570 ± 0.035; in assay [3] (setting [19]), 0.733 ± 0.095; in assay [3] (setting [20]), 0.646 ± 0.116; in assay [3] (setting [21]), 1.031 ± 0.214; in assay [3] (setting [22]), 0.548 ± 0.132. The “concentration required for significant changes of HOTTIP expression” value in assay [3] (setting [23]) was found to be 10 µM. The Ki is 107 ± 20 nM in assay [4] (read-out: Ki (tracer 2F), WBM site, WDR5^WT 500 nM, 2F 5.0 nM, HEPES pH 7.0, 0.01% Triton-X, 1% DMSO, mean ± SD of four replicates (two biological x two technical), converted from IC50) and over 40000 nM in assay [5] (read-out: Ki (tracer 1F), WIN site, WDR5^WT 2 nM, 1F 0.6 nM, HEPES pH 7.0, 0.01% Triton-X, 1% DMSO, mean ± SD of four replicates (two biological x two technical), converted from IC50). Further, in assay [5], the “inhibition at the WIN site” value is recorded as “did not observe any crossover inhibition”.

As for `CC(=O)N[C@@H](C)C(=O)N[C@@H](CCCNC(=N)N)C(=O)N[C@H](C(=O)N[C@@H](CCC(=O)O)C(=O)N[C@H](C(=O)N[C@@H](Cc1c[nH]cn1)C(=O)N[C@@H](CC(C)C)C(=O)N[C@@H](CCCNC(=N)N)C(=O)N[C@@H](CCCCN)C(=O)N[C@@H](CO)C(N)=O)C(C)C)[C@@H](C)O` [1NH2], in assay [4] (competitive FP, tracer 2F), the “inhibition at the WBM site” value is “does not inhibit the WBM-site”.

On to `CC[C@H](C)[C@H](NC(=O)[C@H](CCC(=O)O)NC(=O)[C@H](CCC(=O)O)NC(=O)[C@H](CCC(=O)O)NC(=O)[C@H](CC(=O)O)NC(C)=O)C(=O)N[C@H]1CC(=O)NCC[C@@H](C(=O)N[C@H](C(=O)N[C@@H](CCC(=O)O)C(N)=O)C(C)C)NC(=O)[C@H](C(C)C)NC(=O)[C@H](C(C)C)NC1=O` [2Ac] (Ac-DEEEIDVV[Dab]VE-NH2; lactam 6-9), for which the “inhibition at the WIN site” value in assay [5] is recorded as “vice versa”.

In the case of `CN1CCN(c2ccc(-c3cccc(CN4CCOCC4)c3)cc2NC(=O)c2c[nH]c(=O)cc2C(F)(F)F)CC1` [OICR-9429], the “concentration of maximum effect on FOXD3-AS1 expression” value in assay [2] (setting [23]) was 5 µM. In assay [3] (setting [23]), the “concentration of maximum effect on HOTTIP expression” value is 5 µM.

(Values after paper PMC10880924, “Small molecule WDR5 inhibitors down-regulate lncRNA expression” (RSC Medicinal Chemistry, 2024).)
